One data set relates to E. coli (ATCC 25922). The experiment in a line: Antibacterial microdilution MIC. In kind it is cell-based. The following applies: Escherichia coli, ATCC25922; A: E. coli (ATCC 25922), Gram-negative; read-out: MIC. How it is done:
(§1) The antifungal and antibacterial activities of the synthesized compounds (5a–i) were evaluated in vitro against E. coli (ATCC 25922), S. marcescens (ATCC 8100), K. pneumoniae (ATCC 13883), P. aeruginosa (ATCC 27853), E. faecalis (ATCC 2942), B. subtilis, S. aureus (ATCC 29213), S. epidermidis (ATCC 12228), C. albicans (ATCC 24433), C. krusei (ATCC 6258), and C. parapsilosis (ATCC 22019). The final synthesized compounds were evaluated as antibacterial and antifungal references, in comparison to azithromycin, voriconazole, and fluconazole. Tables 1 and 2 provide a summary of the antimicrobial activity test results and the minimum inhibitory concentrations (MICs) of the compounds (5a–i).
(§2) The antimicrobial activity of the final compounds (5a–i) was screened against eight species of pathogenic bacteria and […] (E. coli (ATCC 25922), S. marcescens (ATCC 8100), K. pneumonia (ATCC 13883), P. aeruginosa (ATCC 27853), E. faecalis (ATCC 2942), B. subtilis (NRRL NRS 744), S. aureus (ATCC 29213), S. epidermidis (ATCC 12228), C. albicans (ATCC 24433), C. glabrata (ATCC 90030), C. krusei (ATCC 6258), and C. parapsilosis (ATCC 22 019)) according to the microdilution standard methods CLSI M07-A9 (2012) and NCCLS M27-A2 (2002), as described in the previous study.[25],[26]

For another data set, the system named is E. faecalis (ATCC 2942). The data set is described as follows: Antibacterial microdilution MIC. The following applies: Enterococcus faecalis, ATCC2942; E: E. faecalis (ATCC 2942), Gram-positive; read-out: MIC. In kind it is cell-based. How it is done:
as §1, §2
(In general: Broth dilution looks for growth in wells or tubes with falling amounts of substance.)

Another data set relates to S. aureus (ATCC 29213). The experiment in a line: Antibacterial microdilution MIC. Type of data set: cell-based. Conditions: Staphylococcus aureus, ATCC29213; G: S. aureus (ATCC 29213), Gram-positive; read-out: MIC. How it is done:
as §1, §2

Data set [1] has as its system S. epidermidis (ATCC 12228). The data set is described as follows: Antibacterial microdilution MIC. In kind it is cell-based. The following applies: Staphylococcus epidermidis, ATCC12228; H: S. epidermidis (ATCC 12228), Gram-positive; read-out: MIC. How it is done:
as §1, §2

For data set [2], the system named is S. marcescens (ATCC 8100). The experiment in a line: Antibacterial microdilution MIC. In kind it is cell-based. The following applies: Serratia marcescens, ATCC8100; B: S. marcescens (ATCC 8100), Gram-negative; read-out: MIC. As for the experimental part: as §1, §2
Data set [3] concerns P. aeruginosa (ATCC 27853). The data set is described as follows: Antibacterial microdilution MIC. Type of data set: cell-based. Conditions: Pseudomonas aeruginosa, ATCC27853; D: P. aeruginosa (ATCC 27853), Gram-negative; read-out: MIC. As for the experimental part:
as §1, §2

In another data set the test system is B. subtilis. The data set is described as follows: Antibacterial microdilution MIC. Conditions: Bacillus subtilis; F: B. subtilis, Gram-positive; read-out: MIC. Type of data set: cell-based. As for the experimental part: as §1, §2
Data set [4] deals with K. pneumoniae (ATCC 13883). The experiment in a line: Antibacterial microdilution MIC. Conditions: Klebsiella pneumoniae, ATCC13883; C: K. pneumoniae (ATCC 13883), Gram-negative; read-out: MIC. Type of data set: cell-based. As for the experimental part:
as §1, §2

The subject of another data set is C. albicans (ATCC 24433). The experiment in a line: Antifungal microdilution MIC. Conditions: Candida albicans, ATCC24433; C. albicans (ATCC 24433); read-out: MIC. In kind it is cell-based. How it is done: as §1, §2
For another data set, the system named is C. krusei (ATCC 6258). The experiment in a line: Antifungal microdilution MIC. In kind it is cell-based. Conditions: Pichia kudriavzevii, ATCC6258; C. krusei (ATCC 6258); read-out: MIC. As for the experimental part: as §1, §2
In data set [5] the test system is C. parapsilosis (ATCC 22019). The experiment in a line: Antifungal microdilution MIC. Type of data set: cell-based. The following applies: Lodderomyces parapsilosis, ATCC22019; C. parapsilosis (ATCC 22019); read-out: MIC. As for the experimental part: as §1, §2
In data set [6] the test system is L929 fibroblast cell line. The experiment in a line: Cytotoxicity MTT assay on healthy cells. In kind it is cell-based. The following applies: L929 healthy mouse fibroblast cells. How it is done:
The effect of the compounds between 5a–i on the viability of the L929 cell line was analyzed by MTT assay. The MTT method was performed as previously described.[27]
On the technique in general: Tetrazolium dyes change colour on reduction, which living cells bring about.

Values after ≈ are worked out from the molar mass of the structure shown.

`COc1ccc(Nc2nnc(-c3ccc(-c4nc5ccccc5[nH]4)cc3)s2)cc1` [Compound 5h, N-(4-Methoxyphenyl)-5-(4-(1H-Benzo[d]imidazole-2-Yl)phenyl)-1,3,4-Thiadiazole-2-Amine] yielded a melting point of 276.7 °C. In the data set on E. coli (ATCC 25922), the MIC is 31.2 µg/mL (≈ 78.2 µM). The minimal inhibitory concentration (MIC) with E. faecalis (ATCC 2942) was 3.9 µg/mL (≈ 9.76 µM). For the same compound, the MIC in the data set with S. aureus (ATCC 29213) was found to be 31.2 µg/mL (≈ 78.2 µM). Also, the MIC in data set [1] was determined as 31.2 µg/mL (≈ 78.2 µM). Also, in [2], the MIC is 62.5 µg/mL (≈ 156 µM). Further, the minimal inhibitory concentration (MIC) in data set [3] worked out at 31.2 µg/mL (≈ 78.2 µM). In the data set on B. subtilis, the minimal inhibitory concentration (MIC) turned out to be 125 µg/mL (≈ 313 µM). Moreover, the minimal inhibitory concentration (MIC) in data set [4] is 62.5 µg/mL (≈ 156 µM). Moreover, the MIC with C. albicans (ATCC 24433) turned out to be 3.9 µg/mL (≈ 9.76 µM). In addition, in the data set on C. krusei (ATCC 6258), the minimum inhibitory concentration (MIC) came out at 125 µg/mL (≈ 313 µM). For the same compound, in data set [5], the MIC came to 125 µg/mL (≈ 313 µM). Further, the IC50 in data set [6] came out at 76 ± 9.4 µM.

Usually melting point stands for the temperature of the solid-liquid transition. One may read the MIC as the lowest concentration found to suppress growth. In general, IC50 refers to the concentration that inhibits the measured activity by half. A low value points to inhibition by little substance.
